# Experimental data from patent US20120172450A1, “USE OF JASMONATE FOR IMPROVING SKELETAL MUSCLE FUNCTION” (BROADY HEALTH SCIENCES, LLC, priority 2010, published 2012).
# System: skeletal muscle fatigue and performance
# Experiment: Effect of Jasmone on Muscle Fatigue and Performance in exercising subjects
# Assay type: in vivo, human
# Protocol: Subjects ranged from 43 to 72 years old. Subjects took 50-100 micrograms of jasmone once a day. All subjects were currently performing various exercise programs. Individual data was collected as to the changes that were noted upon jasmone supplementation.
# Subject one, was a person who ran and trained with weights on a regular basis. They took a simplified stress test measuring time to maximum heart rate on treadmill exertion. Pre-Jasmone time on treadmill to target heart rate was 9 minutes. Two weeks after taking Jasmone, stress test results improved to 11 minutes. After 4 weeks of jasmone protocol stress test time increased to 15 min. In addition, after 3 weeks they reported increased weight repetitions by 15 percent and within four weeks increased push ups by 20 percent with same level of exertion as before.
# Subject two, was a person who ran on a regular basis. Prior to Jasmone, full exertion exercise routine consisted of approximately 2 miles at 4.5 miles per hour. After two weeks of Jasmone was able to increase routine to running time to 2.5 miles without difficulty.
# Subject three (person one), was a person who biked on a regular basis. After 4 weeks of taking Jasmone they increased cycling distance by 50 percent and speed by 10 percent.
# Subject four, a person reported who trained with weights on a regular basis, increased weight repetitions of 25% after 4 weeks of taking Jasmone. Subject four, a person regularly performed an exercise routine including weight machines. Prior to taking Jasmone, on a particular machine, they were able to perform 12 repetitions at 60 pds of weight. Two weeks after taking Jasmone was able to increase weight to 80 and repetitions increased to 14.
# Subject five, was a person, who regularly exercised but due to travel was unable to maintain normal exercise routine during trial. […] Two examples of this include running through an airport carrying luggage and another running in extreme heat.
smiles,measurement,setting,value
"CC/C=C\CC1=C(C)CCC1=O [Jasmone, jasmone]",self-reported running ability,"Subject five, normal exercise routine not maintained during trial",increased ability to run far and fast without getting winded
same,increase in weight repetitions,"Subject four, after 4 weeks of taking Jasmone",25%
same,self-reported strength and endurance,"Subject four, after four weeks of Jasmone",felt increased strength and endurance
same,repetitions on weight machine,"Subject four, two weeks after taking Jasmone, prior 12 repetitions",14
same,weight on weight machine,"Subject four, two weeks after taking Jasmone, prior 60 pds",80 pds
same,increase in weight repetitions,"Subject one, after 3 weeks, same level of exertion as before",15%
same,stress test time (time on treadmill to target heart rate),"Subject one, after 4 weeks of jasmone, pre-Jasmone 9 minutes",15 min
same,time on treadmill to target heart rate (simplified stress test),"Subject one, two weeks after taking Jasmone, 50-100 micrograms once a day, pre-Jasmone 9 minutes",11 min
same,increase in push ups,"Subject one, within four weeks, same level of exertion as before",20%
same,increase in cycling distance,"Subject three (person one), after 4 weeks of taking Jasmone",50%
same,increase in cycling speed,"Subject three, after 4 weeks of taking Jasmone",10%
same,workout fatigue,"Subject two, after additional two weeks",workout fatigue continued to improve
same,running routine distance,"Subject two, after two weeks of Jasmone, prior approximately 2 miles at 4.5 miles per hour",2.5 miles
